Experimental data reported in patent publication US20160213635A1, “COMPOSITIONS USEFUL IN THE PREVENTION OR TREATMENT OF SKIN CANCER” (GIULIANI S.P.A., priority 2013, published 2016).

What was measured:
[1] = test system: NHKs cells; experiment: Western Blot assessment (non-cleaved caspase 3) of UV induced apoptosis after pre-treatment with G01; type: cell-based, human; conditions: pre-treatment 90 μM 24±2 h; UVA 25 J/cm^2, UVB 80 mJ/cm^2; 24 h
Protocol: The NHKs cells were plated in the specific culture medium and maintained in culture for 24±2 h to allow adhesion to the plate. Each experimental condition was plated in duplicate. The cells were treated for 24±2 h with the compound G01, in a concentration of 90 μM. Subsequently, the cells identified as +UVA, +G01/UVA, +UVB, and +G01/UVB were respectively exposed, in the irradiation medium, to doses of UVA of 25 J/cm^2 and UVB of 80 mJ/cm^2, while the control plates and those treated only with G01 were maintained in the dark and at room temperature for a period of time equal to the irradiation time. The irradiation medium was then replaced with the culture medium. Based on the preliminary results obtained on a broader time range, a post-treatment time of 24 h was selected, after which the plates were processed for Western Blot protein determination. The protein expression of non-cleaved caspase 3 in each condition tested (treatment with G01 and/or UVA/UVB irradiation) was compared with the expression in the control cells (Ctr).

[2] = test system: NHKs cells; experiment: Western Blot time course of p53, phospho-p53 and GADD45a after UVB irradiation and subsequent treatment with G01; type: cell-based, human; conditions: post-treatment 90 μM
Protocol: The NHKs cells were plated in the specific culture medium and maintained in culture for 24±2 h to allow adhesion to the plate. Subsequently, the plates identified as +UVB and +G01/UVB post were exposed, in the irradiation medium, to a UVB dose of 25. mJ/cm^2. The irradiation medium was then replaced with the culture medium containing the compound of the invention G01, in a concentration of 90 μM. Post-treatment times of 1-3-6-24 h were selected, after which the plates were processed for Western Blot protein determination. The protein expression of p53, phospho-p53, and GADD45a after UVB irradiation and post-treatment with the compound of the invention G01 was compared with the expression in the control cells (Ctr).

[3] = test system: NHKs cells; experiment: Western Blot assessment (non-cleaved caspase 3) of apoptosis induced by UV irradiation and subsequent treatment with G01; type: cell-based, human; conditions: post-treatment 90 μM; UVA 25 J/cm^2, UVB 80 mJ/cm^2; 24 h
Protocol: The NHKs cells were plated in the specific culture medium and maintained in culture for 24±2 h to allow adhesion to the plate. Subsequently, the plates identified as +UVA, +G01/UVA, +UVB, and +G01/UVB were respectively exposed, in the irradiation medium, to doses of UVA of 25 J/cm^2 and UVB of 80 mJ/cm^2, while the control plates (Ctr) and those treated only with the compound under examination (G01) were maintained in the dark and at room temperature for a period of time equal to the irradiation time. The irradiation medium was then replaced with the culture medium containing the compound G01, in a concentration of 90 μM. Based on the preliminary results obtained on a broader time range, a post-treatment time of 24 h was selected, after which the plates were processed for Western Blot protein determination. The protein expression of non-cleaved caspase 3 in each condition tested (treatment with the compound G01 under examination and/or UVA/UVB irradiation) was compared with the expression in the control cells.

[4] = test system: primary cultures of human keratinocytes, NHKs; experiment: Cell viability after treatment with G01; type: cell-based; conditions: eight different concentrations, 48±2 h, three NHKs cultures
Protocol: The study is performed on primary cultures of human keratinocytes, NHKs. The cells (three different cultures of keratinocytesNHKs) were plated in the specific culture medium and maintained in culture for 24±2 h to allow adhesion to the plate. The cells were treated with eight different concentrations of the compound of the invention […] under evaluation, diluted in the culture medium, for 48±2 h. The values of cell viability for each concentration tested, resulting from the spectrophotometric reading, were compared with the value obtained from the control.

[5] = test system: primary cultures of human keratinocytes, NHKs; experiment: Cell viability (incorporation of NR) after pre-treatment with G01 and subsequent UV irradiation; type: cell-based; conditions: pre-treatment 24±2 h; UVA 10 J/cm^2, UVB 25 mJ/cm^2; particularly 48 h after irradiation; particularly significant at 90 μM
Protocol: The cells were plated in the specific culture medium and maintained in culture for 24±2 h to allow adhesion to the plate. The cells were treated for 24±2 h with the concentrations of the compound G01 under evaluation, selected based on the previous results. Subsequently, the cells in the plates identified as +UVA and +UVB were respectively exposed, in the irradiation medium, to doses of UVA of 10 J/cm^2 and UVB of 25 mJ/cm^2, while the control plate was maintained in the dark and at room temperature for a period of time equal to the irradiation time. The irradiation medium was then replaced with the culture medium. The cell viability was measured (incorporation of NR) 24±2 h and 48±2 h after the irradiation, following examination of the morphology of the cells under a microscope, in the absence and the presence of treatment with G01 and/or UVA/UVB irradiation. The cell viability values for each condition tested were compared with the value obtained from the control and plotted on a graph to highlight any differences between the various experimental conditions.

[6] = test system: NHKs cells; experiment: Western Blot assessment of ability to repair DNA damage after pre-treatment with G01 and subsequent UV irradiation; type: cell-based, human; conditions: after UVB irradiation 25 mJ/cm^2, 6 h
Protocol: The NHKs cells were plated in the specific culture medium and maintained in culture for 24±2 h to allow adhesion to the plate. Then, the keratinocytes were treated for 24±2 h with the compound of the invention G01, at concentrations of 60 μM and 90 μM. Subsequently, the plates identified as +UVA, +G01/UVA, +UVB, and +G01/UVB were respectively exposed, in the irradiation medium, to doses of UVA of 10 J/cm^2 and UVB of 25 mJ/cm^2, while the control plates (Ctr) and those treated only with G01 were maintained in the dark and at room temperature for a period of time equal to the irradiation time. The irradiation medium was then replaced with the culture medium. Based on the preliminary results obtained on a broader time range, a post-treatment time of 6 h was selected, after which the plates were processed for Western Blot protein determination.
For each condition tested (treatment with G01 and/or UVA/UVB irradiation), the protein expression of the phosphorylated histone γH2AX, p53 and GADD45a (growth arrest and DNA damage response gene), known markers of DNA damage induced by UV radiation, was compared with the expression in the control cells (Ctr).

[7] = UVB 25 mJ/cm^2, shorter times of 1-3-6-24 h

Compound: C/C=C/C=C/C=C/C(=O)O [G01, 2,4,6-trans-octatrienoic acid]
- caspase 3 activation (protein expression of non-cleaved caspase 3) [1]: reduce caspase 3 activation
- expression of the markers of DNA damage ([2]; 24 h after UVB irradiation 25 mJ/cm^2): decrease in the expression
- levels of GADD45a [2, 7]: acceleration of the increase
- levels of p53 [2, 7]: acceleration of the increase
- levels of phospho-p53 [2, 7]: acceleration of the increase
- caspase 3 activation (protein expression of non-cleaved caspase 3) [3]: reduce caspase 3 activation
- cell viability (cellular toxicity) vs control [4]: absence of cellular toxicity
- cell viability after UVA/UVB irradiation [5]: general protective effect of cell viability
- fraction of phosphorylated histone γH2AX [6]: reduced fraction
